Test results: patent US20200289482A1, “CYSTIC FIBROSIS TRANSMEMBRANE CONDUCTANCE REGULATOR MODULATORS FOR TREATING AUTOSOMAL DOMINANT POLYCYSTIC KIDNEY DISEASE” (The Johns Hopkins University, priority 2017, published 2020)

Columns and labels:
[1] = test system: kidneys of Pkd1^fl/fl; Pax8^rtTA; TetO-cre mice; assay: Ki67 staining of kidney sections (proliferation); format: in vivo, mouse; conditions: VX-809 30 mg/kg to mice vs DMSO-treated mice; PN21 kidney sections
Source text: FIG. 3A, FIG. 3B, FIG. 3C, and FIG. 3D show cell proliferation is reduced by VX-809. (FIG. 3A-FIG. 3B) Proliferation in kidneys of Pkd1^fl/fl; Pax8^rtTA; TetO-cre mice. Representative images of Ki67 (a cellular marker for proliferation) staining of PN21 kidney sections from DMSO- and VX-809-treated mice. Arrows indicate Ki67-positive cells. Pictures were acquired with a Zeiss microscope equipped with 20× objective. (FIG. 3C) Summary data for Ki67-positive cells. Columns represent averages±standard errors of DMSO (vehicle)-treated (n=3) and VX-809-treated (n=3) mice. Statistical analysis was performed using a two-tailed Student's t test. (FIG. 3D) Proliferation in PN cells. PN cells were treated with VX-809 or DMSO). The bromodeoxyuridine (BrdU) concentration in the cells was measured by using a BrdU cell proliferation assay kit (Millipore Sigma #2750) according to the manufacturer's protocol. Columns represent averages±SEs of the OD of BrdU at 450/550 […]. Data were analyzed using Student's t-test, with n=5-7. Methods were described previously (62). […]; **P<0.01;
A hallmark of the cysts in ADPKD is an increase in proliferation in response to cAMP (23). Therefore, it was determined whether VX-809 would affect proliferation.

Hsp90 = assay: Cycloheximide chase, disappearance of Hsp90 in PN cells; format: cell-based, mouse; conditions: VX-809 10 μM with cycloheximide 25 μM
Experimental: FIG. 9A, FIG. 9B, FIG. 9C, FIG. 9D, FIG. 9E, FIG. 9F, FIG. 9G, and FIG. 9H show Hsp27, HSp70, and Hsp90 expression in PN cells treated with VX-809 and/or cycloheximide. (A) Pkd1 null (PN) cells were treated with VX-809 (10 μM) and/or with cycloheximide (25 μM) for indicated time points before being harvested for the assay. (FIG. 9A) Western blot showing expression of Hsp27, Hsp70, and Hsp90 in VX-809-(16 h), cycloheximide-treated, or control PN cells. ((FIG. 9B. (FIG. 9C, and (FIG. 9D) Columns represent averages±standard errors of Hsp27, Hsp70, and Hsp90 expression in cells treated with VX-809 and/or cycloheximide. ((FIG. 9E) Western blot showing expression of Hsp27, Hsp70, and Hsp90 in PN cells treated with VX-809+cycloheximide or control PN cells. ((FIG. 9F, (FIG. 9G, and (FIG. 9H) Columns represent averages±standard errors of Hsp27, Hsp70, and Hsp90 expression in cells treated only with cycloheximide or in control PN cells. Data were analyzed by non-parametric t-test. The experiments were repeated 3-5 times. *P<0.05, **P<0.01;
To gain more insight into the mechanism whereby VX-809 alters Hsp protein levels, translation was inhibited by using cycloheximide (35) and the disappearance of the three Hsps was monitored. […] Hsp 90 was reduced by approximately 25%, and Hsp27 was unchanged.

[2] = test system: Pkd1^fl/fl; Pax8^rtTA; TetO-cre mice; assay: Cyst growth and renal function in Pkd1 knockout mice treated with VX-809; format: in vivo, mouse
Experimental: (FIG. 1A) Representative images of postnatal day (PND) 21 kidney sections from DMSO- and VX-809-treated mice. Significant reductions occurred in (FIG. 1B) cyst index, (FIG. 1C) kidney weight, and (FIG. 1D) kidney-to-body weight ratio. […] Methods: The total kidney area and total cystic area were measured with ImageJ (provided by NIH). Cystic index=100× (total cystic area/total kidney area) and is expressed as a percentage. Columns represent means±standard error (SEM) for DMSO (vehicle)-treated (n=4-5) and VX-809 mice. *P<0.05; **P<0.01 (for all graphs). Statistical analysis was performed using an unpaired two-tailed Student's t-test;
When treated with doxycycline, these mice express Cre, causing knockout of PC1 (18). […] The dosage of VX-809 injected was lower than the human pediatric dose, which is 500 mg of Lumacaftor per day; the adult dose is 800 mg/day.
Mouse strain and treatment. Pkd1^fl/fl; Pax8^rtTA; TetO-cre mice on a C57BL/6 background (61) were provided by the Baltimore PKD Center. Mice of both sexes were used in this study. Mice were injected IP with doxycycline (Sigma, # D9891) ([…]) on postnatal day 11 (PND11), PND12, and PND13 to produce very rapid and aggressive cyst growth (18,19). On PND21, the mice were euthanized.

Hsp27 = assay: Western blot of Hsp27 in kidney tissue lysates; format: in vivo, mouse; conditions: cyst induced pkd−/− mice, VX-809 30 mg/kg BW
Experimental: FIG. 7A, FIG. 7B, FIG. 7C, FIG. 7D, FIG. 7E, and FIG. 7F show chaperone expression is altered in mice by VX-809. (FIG. 7A-FIG. 7B) Representative Western blot images of HSP27, 70, 90 and HSP40 in lysates of kidney tissue from no cyst induced (ND), cyst induced with Doxycycline (D) or cyst induced pkd−/− mice treated with VX-809 (D+VX-809) 30 mg/kg BW. (FIG. 7C, FIG. 7D, FIG. 7E, and FIG. 7F) Columns represent averages±standard errors of HSP27, 70, 90 and HSP40 expression. Data were analyzed by non-parametric t-test. n=4 for each treated and control groups. Black lines between lanes represent representative experiments from the same gel. *P<0.05; **P<0.01; To facilitate their growth in the kidney, cysts have developed an altered network of proteins that most likely serves to protect them from stress (34). Next, it was determined whether VX-809 would alter the levels of Hsps in pkd−/− mice and in PN cells. […] Hsp 27, 70 and 90 are all elevated in cystic kidneys compared to normal controls. […] There is no change in Hsp 40. […] Both sets of data are consistent with an alteration in the heat shock response to cyst growth.

[3] = VX-809 30 mg/kg IP daily PND10 to PND20 vs DMSO-treated mice
[4] = VX-809 30 mg/kg IP daily PND10 to PND20 vs control mice

Substance: lumacaftor [VX-809]
- cell proliferation (Ki67-positive cells) [1]: significantly inhibit cell proliferation
- Hsp 90 reduction over the 8-h period (Hsp90): approximately 25%
- overall body weight ([2]; VX-809 30 mg/kg IP daily PND10 to PND20, treated vs untreated groups): no difference in overall body weight
- blood urea nitrogen (BUN) [2, 3]: lowered blood urea nitrogen (BUN)
- creatinine [2, 3]: lowered
- less cyst growth (cyst index) ([2]; VX-809 30 mg/kg IP daily PND10 to PND20 vs DMSO, doxycycline-induced cysts, PND21): ~60.4%
- Kidney weight [2, 4]: lower than those of the control mice
- kidney-to-body weight ratio [2, 4]: lower than those of the control mice
- Hsp27 expression in kidneys (Hsp27): significantly less expression
